As a reminder, the IC50 is the concentration at which inhibition is half-maximal. A low value points to higher potency. Usually Kb stands for the affinity of an antagonist, worked out from how it opposes an agonist.

IC50 and Kb data for 19 compounds are collected here from ChEMBL document CHEMBL1133493, “N-acylated alpha-(3-pyridylmethyl)-beta-aminotetralin antagoinists of the human neuropeptide Y Y5 receptor” (Bioorg Med Chem Lett, 2000).

Test [1] deals with T1, Neuropeptide Y receptor type 5 (Homo sapiens, UniProt Q15761).
T1 sequence (Q15761 whole entry): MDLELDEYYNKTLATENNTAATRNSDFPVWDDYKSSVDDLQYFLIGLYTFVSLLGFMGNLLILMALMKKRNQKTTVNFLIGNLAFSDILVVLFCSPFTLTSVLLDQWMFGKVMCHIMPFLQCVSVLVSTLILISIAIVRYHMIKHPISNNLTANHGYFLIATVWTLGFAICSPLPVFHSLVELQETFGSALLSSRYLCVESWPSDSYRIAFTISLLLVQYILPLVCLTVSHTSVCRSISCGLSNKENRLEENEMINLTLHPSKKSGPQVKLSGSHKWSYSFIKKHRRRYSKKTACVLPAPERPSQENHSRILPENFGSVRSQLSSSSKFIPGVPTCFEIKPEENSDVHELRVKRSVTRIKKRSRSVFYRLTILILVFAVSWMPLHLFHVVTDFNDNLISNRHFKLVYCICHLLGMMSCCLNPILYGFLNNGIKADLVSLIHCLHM
Description: Inhibition of binding of radioligand [125I]PYY to the human Neuropeptide Y receptor type 5, using a stably transfected HEK293 cell line. In kind it is cell-based.

Test [2] addresses T2, Neuropeptide Y receptor type 5 (Homo sapiens) (UniProt Q15761).
T2 sequence (whole entry): T1 sequence (Q15761 whole entry)
Nature of the test: Antagonist potency by inhibition of peptide YY (PYY)-induced incorporation of [35S]GTP-gamma-S into membranes prepared from NPY5 receptor expressing cells, in the presence of 300 nM PYY. Format: functional. For orientation: GTPγS resists hydrolysis and so accumulates on activated G proteins.

As for `CC(C)(C)OC(=O)N[C@H]1CCN(CC(=O)NC2CCc3cc(F)ccc3C2Cc2cccnc2)C1` (stereo partly specified), the IC50 in test [1] came to 17 nM. For the compound `O=C(CN1CCC(n2c(O)nc3ccccc32)CC1)NC1CCc2cc(F)ccc2C1Cc1cccnc1` (stereo unspecified), the IC50 in test [1] stood at 25 nM. Further, the Kb in test [2] is 21 nM. For the compound `CC(C)(C)OC(=O)NC[C@H]1CC[C@H](C(=O)NC2CCc3cc(F)ccc3C2Cc2cccnc2)CC1` (stereo partly specified), the IC50 in test [1] came to 16 nM. Still for that read-out and setting: then `O=C(CN1CCC(NC(=O)Oc2ccccc2)CC1)NC1CCc2cc(F)ccc2C1Cc1cccnc1` (stereo unspecified), with 52 nM.

Regarding `CC(C)(C)OC(=O)N[C@@H]1CCN(CC(=O)NC2CCc3cc(F)ccc3C2Cc2cccnc2)C1` (stereo partly specified), the half-maximal inhibitory concentration (IC50) in test [1] turned out to be 30 nM. Against the preceding compound, the IC50 is about 1.7-fold lower. For `COc1ccc2c(c1)CCC(NC(=O)CN1CCC(n3c(=O)[nH]c4ccccc43)CC1)C2Cc1cccnc1` (stereo unspecified), the IC50 in test [1] turned out to be 75 nM. The same measure, in the same setting: the same measure for `O=C(Cc1ccccc1)NC[C@H]1CC[C@H](C(=O)NC2CCc3cc(F)ccc3C2Cc2cccnc2)CC1` (stereo partly specified): 114 nM; for `O=C(CN1CCC(NC(=O)c2ccccc2)CC1)NC1CCc2cc(F)ccc2C1Cc1cccnc1` (stereo unspecified): 28 nM; for `O=C(NC[C@H]1CC[C@H](C(=O)NC2CCc3cc(F)ccc3C2Cc2cccnc2)CC1)c1ccccc1` (stereo partly specified): 39 nM. Same read-out and setting: then `CC(C)(C)OC(=O)NC1CCN(CC(=O)NC2CCc3cc(F)ccc3C2Cc2cccnc2)CC1` (stereo unspecified), with 37 nM. In turn, `O=C(CN1CCC(n2c(O)nc3ccccc32)CC1)NC1CCc2cc(O)ccc2C1Cc1cccnc1` (stereo unspecified) showed an IC50 in test [1] of 6 nM. The antagonist dissociation constant (Kb) in test [2] was 21 nM. In the case of `CC(C)(C)NC(=O)NC1CCN(CC(=O)NC2CCc3cc(F)ccc3C2Cc2cccnc2)CC1` (stereo unspecified), the IC50 in test [1] amounted to 140 nM. On the same count and under the same terms, then `O=C(CN1CCC(n2c(=O)[nH]c3ccccc32)CC1)NC1CCc2ccccc2C1Cc1cccnc1` (stereo unspecified), with 22 nM; and `O=C(Cc1ccccc1)NC1CCN(CC(=O)NC2CCc3cc(F)ccc3C2Cc2cccnc2)CC1` (stereo unspecified), with 36 nM.

On to `O=C(NC[C@H]1CC[C@H](C(=O)NC2CCc3cc(F)ccc3C2Cc2cccnc2)CC1)Oc1ccccc1` (stereo partly specified), for which, in test [1], the IC50 was determined as 31 nM.

`CC(C)(C)OC(=O)NC1CCN(CC(=O)NC2CCc3cc(F)ccc3C2Cc2cccnc2)C1` (stereo unspecified): the IC50 in test [1] stood at 45 nM. Same read-out and setting: then `O=C(NC[C@H]1CC[C@H](C(=O)NC2CCc3cc(F)ccc3C2Cc2cccnc2)CC1)Nc1ccccc1` (stereo partly specified), with 170 nM; and `O=C(CN1CC[C@H](NC(=O)c2ccccc2)C1)NC1CCc2cc(F)ccc2C1Cc1cccnc1` (stereo partly specified), with 26 nM.

In the case of `O=C(CN1CCC(NC(=O)Nc2ccccc2)CC1)NC1CCc2cc(F)ccc2C1Cc1cccnc1` (stereo unspecified), the half-maximal inhibitory concentration (IC50) in test [1] stood at 236 nM.
